Measurements published in patent publication US20170260169A1, “INHIBITORS FOR STEROID RESPONSE ELEMENTS AND RNA POLYMERASE II AND RELATED METHODS” (priority 2007, published 2017).
Read-outs that look alike come from different tables or passages of the source. One block for each compound: values may come before it.

How the values were obtained:
[1] = Multiple-dose subcutaneous injections, male C57BL/6J mice; format: in vivo; details: 1 mg/kg SC every 3 days
Method: In addition to single dose injections, the effects of repeated dosing of polyamides 77-80 in mice were examined. In this experiment, 8 week-old male C57BL/6J mice (n=3 per dosing group) were treated with 1 mg/kg of polyamides 77-80 by subcutaneous injection every 3 days, for a cycle of three injections and then sacrificed two days after the final injection (FIG. 31A). As in the single dosing experiments, two mice per group were subjected to histopathology analysis and all blood samples were sent for analysis. […] These mice were promptly euthanized.
Serum from treated animals were collected by retroorbital bleeding. […] All samples were sent for analysis at IDEXX-RADIL.

[2] = Liver microsomal stability, human; details: 1 μM, Human, 1 hr at 37° C., 1 mg/ml microsomes
[3] = Liver microsomal stability, mouse; details: 1 μM, Mouse, 1 hr at 37° C., 1 mg/ml microsomes
[4] = Escalating single dose subcutaneous injections, male C57BL/6J mice (weight, histopathology, serum); details: for weight loss after single SC dose: 1, 3, 10 mg/kg, 9 days
LNCaP cells = experiment: Confocal microscopy of fluorescein polyamide uptake in LNCaP cells; format: cell-based; details: for nuclear localization in LNCaP cells: 2 μM, 24 hr
Method: Cells were plated in 35 mm optical dishes (MatTek) and dosed with polyamide 86 at 1 μM for 24 hours with or without 1 μM MG132. Cells were then washed with PBS and imaged on a confocal microscope (Exciter, Zeiss) using a 63× oil immersion lens. Confocal imaging was performed following established protocols (33).
To determine the biological activity of 78 in LNCaP cells we first looked for evidence nuclear localization using fluorescein analog 90. The fluorescein analog of 77, compound 88, was used as benchmark.

[5] = Serum circulation after subcutaneous injection in C57BL/6 mice; format: in vivo; details: 10 mg/kg, male C57BL/6J
Method: To investigate if polyamide 77 could be detected in peripheral blood after SC injections, 120 nmol of 77 (in 5% DMSO/PBS) was injected into the right flank of four C57BL/6 mice. Blood was collected from anesthetized mice via retroorbital collection at 5 minutes, 4 h, and 12 h after injection, then processed by methods previously described and analyzed by HPLC (35). For measurement of serum PSA (KLK3) and uric acid, blood was collected from anesthetized mice via retroorbital collection at experimental endpoint and serum was separated from blood by centrifugation. Serum PSA (KLK3) was measured by ELISA (R&D systems) according to manufacturer's instructions. Uric acid was measured as described (36).
We synthesized four structurally related polyamides (FIG. 28) that have an identical Py-Im sequence ImPyPyPy-γ-ImPyPyPy-NHMe-IPA.

[6] = Liver uptake of fluorescein-polyamide conjugates in mice; format: in vivo; details: 50 nmol (~3 mg/kg), 24 hours
Method: Male C57BL/6J mice (n=2 per group) were injected with 50 nmol (˜3 mg/kg) of 88-91 and then sacrificed 24 hours later. Tissue was excised and processed as previously described (20). The tissues were excised and fixed in 10% Neutral Buffered Formalin for 48 hours. They were subsequently cryoprotected in 15% and 30% aqueous sucrose solution (w/v) for 24 hours each, embedded in a medium for frozen sections (Sakura) and frozen on dry ice. Fluorescence intensity in liver tissue was assessed by laser confocal microscopy in 10 μm thick sections on slides mounted with a ProLong antifade reagent (Invitrogen).

[7] = system: PSA mRNA expression in LNCaP cells; experiment: DHT-induced PSA mRNA in LNCaP cells, quantitative real-time RT-PCR; format: cell-based; details: for inhibition of DHT-induced PSA expression: up to, at 10 μM, 1 nM DHT
[8] = system: FKBP5 mRNA expression in LNCaP cells; experiment: DHT-induced FKBP5 mRNA in LNCaP cells; format: cell-based
[9] = system: transcripts in DHT-stimulated LNCaP cells; experiment: Gene expression with Affymetrix Human Genome U133 Plus 2.0 arrays, DHT-stimulated LNCaP cells; format: cell-based
Method: LNCaP cells were plated in 12-well plates at a density of 80-100×10^3 cells per well. Media, polyamide treatments, and time courses were the same as described above. Bicalutamide was added 2 h before DHT stimulation. RNA was isolated as described in ref. 21. From this point, experiments were carried out at the Millard and Muriel Jacobs Gene Expression Facility at the California Institute of Technology. Labeled mRNA was hybridized to Affymetrix high-density Human Genome U133 Plus 2.0 arrays according to established protocols. Gene expression was analyzed by using Resolver (Rosetta Biosoftware, Seattle, Wash.). Data were uploaded to the Gene Expression Omnibus repository (accession no. GSE7708).
Global effects of polyamides 1 and 2 and bicalutamide on gene expression in DHT-stimulated LNCaP cells were monitored with Affymetrix (Santa Clara, Calif.) high-density Human Genome U133 Plus 2.0 arrays, which interrogate >50,000 transcripts.

[10] = system: PSA mRNA expression in LNAR cells; experiment: PSA mRNA expression in LNAR cells (hormone refractory, over-express AR); format: cell-based
[11] = 10 μM, + DHT, relative to DHT-induced controls, p ≦ 0.01
[12] = relative to DHT-induced controls, + DHT

Mean remaining parent NADPH-free [2]: 100%
Mean remaining parent with NADPH [2]: 91.9%
Mean remaining parent NADPH-free [3]: 100%
Mean remaining parent with NADPH [3]: 92.4%
weight loss after single SC dose [4]: significant weight loss only at 10 mg/kg
kidney histopathology ([4]; single SC 3 mg/kg): Moderate atypical tubular regeneration
serum kidney markers creatinine and BUN ([4]; single SC dose): elevated BUN at 10 mg/kg
Compound: CN(CCCNC(=O)c1cccc(C(=O)O)c1)CCCNC(=O)c1cc(NC(=O)c2cc(NC(=O)c3cc(NC(=O)c4nc(NC(=O)C[C@@H](N)CNC(=O)c5cc(NC(=O)c6cc(NC(=O)c7cc(NC(=O)c8nccn8C)cn7C)cn6C)cn5C)cn4C)cn3C)cn2C)cn1C [Polyamide 79, ImPyPyPy-3-(R)H^2Nγ-ImPyPyPy-NHMe-IPA]
liver and kidney histopathology [1]: mild multifocal hepatocellular necrosis and apoptosis in the liver and mild variable tubular attenuation, karyomegaly and epithelial necrosis and apoptosis in the kidney
liver and kidney serum markers [1]: elevated AST and ALT
weight and physical morbidity ([1]; three injections): no loss in weight or physical morbidities
liver histopathology ([4]; single SC 3 mg/kg): Mild hepatocellular necrosis and apoptosis
liver histopathology ([4]; single SC 10 mg/kg): diffuse hepatocellular necrosis and apoptosis
spleen histopathology ([4]; single SC 10 mg/kg): Mild lymphoid apoptosis in the white pulp of the spleen
serum liver markers AST, ALT, total bilirubin ([4]; single SC dose): severe elevation of AST, ALT, and total bilirubin at 10 mg/kg and to a lesser extent at 3 mg/kg

Compound: CN(CCCNC(=O)c1cc(NC(=O)c2cc(NC(=O)c3cc(NC(=O)c4nc(NC(=O)C[C@H](CNC(=O)c5cc(NC(=O)c6cc(NC(=O)c7cc(NC(=O)c8nccn8C)cn7C)cn6C)cn5C)NC(=O)OCc5ccccc5)cn4C)cn3C)cn2C)cn1C)CCCNC(=S)Nc1ccc(-c2c3ccc(=O)cc-3oc3cc(O)ccc23)c(C(=O)O)c1 [Polyamide 86]
cellular uptake with MG132 (LNCaP cells; 1 μM, 24 hours, 1 μM MG132): did not affect the cellular uptake

Compound: Cn1cc2cc1C(=O)NCCCC(=O)Nc1cn(C)c(n1)C(=O)Nc1cc(n(C)c1)C(=O)Nc1cc(n(C)c1)C(=O)Nc1cc(n(C)c1)C(=O)NCC[C@@H](N)C(=O)Nc1cn(C)c(n1)C(=O)Nc1cc(n(C)c1)C(=O)Nc1cc(n(C)c1)C(=O)N2 [Polyamide 87]
bioavailability in serum after subcutaneous injection [5]: bioavailable after subcutaneous injection at 10 mg/kg
weight loss after single SC dose [4]: did not cause significant weight loss
overall toxicity / organ damage ([4]; single SC 1, 3, 10 mg/kg): moderate damage to both the liver and kidney at 3 and 10 mg/kg
serum liver markers AST, ALT, total bilirubin ([4]; single SC dose): caused levels of ALT and AST to increase in a dose dependent manner

Compound: CN(CCCNC(=O)c1cc(NC(=O)c2cc(NC(=O)c3cc(NC(=O)c4nc(NC(=O)[C@H](N)CCNC(=O)c5cc(NC(=O)c6cc(NC(=O)c7cc(NC(=O)c8nccn8C)cn7C)cn6C)cn5C)cn4C)cn3C)cn2C)cn1C)CCCNC(=S)Nc1ccc(-c2c3ccc(=O)cc-3oc3cc(O)ccc23)c(C(=O)O)c1 [Polyamide 88]
nuclear localization in LNCaP cells (LNCaP cells): robust nuclear localization

Compound: CC(=O)N[C@H](CCNC(=O)c1cc(NC(=O)c2cc(NC(=O)c3cc(NC(=O)c4nccn4C)cn3C)cn2C)cn1C)C(=O)Nc1cn(C)c(C(=O)Nc2cc(C(=O)Nc3cc(C(=O)Nc4cc(C(=O)NCCCN(C)CCCNC(=S)Nc5ccc(-c6c7ccc(=O)cc-7oc7cc(O)ccc67)c(C(=O)O)c5)n(C)c4)n(C)c3)n(C)c2)n1 [Polyamide 90]
nuclear localization in LNCaP cells (LNCaP cells): robust nuclear localization
nuclear fluorescence in liver sections [6]: less nuclear fluorescence in liver sections than the other FITC-polyamide conjugates

Compound: CC(=O)N[C@@H](CNC(=O)c1cc(NC(=O)c2cc(NC(=O)c3cc(NC(=O)c4nccn4C)cn3C)cn2C)cn1C)CC(=O)Nc1cn(C)c(C(=O)Nc2cc(C(=O)Nc3cc(C(=O)Nc4cc(C(=O)NCCCN(C)CCCNC(=S)Nc5ccc(-c6c7ccc(=O)cc-7oc7cc(O)ccc67)c(C(=O)O)c5)n(C)c4)n(C)c3)n(C)c2)n1 [Polyamide 91]
nuclear fluorescence in liver sections [6]: the most intense nuclear fluorescence in liver sections

IC50 ([7]; Homo sapiens, LNCaP + DHT, read-out: IC50 for inhibition of PSA mRNA expression): 0.9 µM
IC50 ([10]; LNAR + DHT, read-out: IC50 for inhibition of PSA mRNA expression): > 1000 µM
IC50 ([10]; LNAR − DHT, bicalutamide induces PSA mRNA in LNAR cells, read-out: IC50 for inhibition of PSA mRNA expression (value in parentheses)): 3.5 µM
Compound: CC(O)(CS(=O)(=O)c1ccc(F)cc1)C(=O)Nc1ccc(C#N)c(C(F)(F)F)c1 (stereo not shown) [bicalutamide, reference compound]
inhibition of DHT-induced PSA expression [7]: approximately 70%
inhibition of DHT-induced PSA expression ([7]; listed as Bicalutamide): ≈ 70%
inhibition of DHT-induced expression of FKBP5 [8]: ~95%
Number of transcripts down-regulated (fold change ≦ −2.0) [9, 11]: 602
Number of transcripts down-regulated (fold change ≦ −4.0) [9, 11]: 133
Number of transcripts up-regulated (fold change ≧ 2.0) [9, 11]: 611
Number of transcripts up-regulated (fold change ≧ 4.0) [9, 11]: 96
number of transcripts affected by at least 2-fold ([9]; 10 μM, P≦0.01, vs DHT-induced controls): 1,213
number of the 88 DHT-repressed transcripts derepressed at least 2-fold ([9]; P≦0.01): 87
number of the 199 DHT-induced transcripts inhibited at least 2-fold ([9]; P≦0.01): 186
Fold-change of FKBP5 [9, 12]: −36.4
Fold-change of KLK2 [9, 12]: −14.7
Fold-change of KLK3 (PSA) [9, 12]: −3.2
Fold-change of TMPRSS2 [9, 12]: −4.1
